Experiments:
[1] = tested on: Nrf2-ARE-driven gene transcription in RAW264.7 cells; test: Real-time quantitative PCR of Nrf2, HO-1, NQO1 and GCLM; format: cell-based, mouse; settings: 20 ng/mL LPS 8 h, compound 500 nM
Protocol: The procedures were performed according to the real-time quantitative RT-PCR experimental procedures reported previously (Z. Jiang, M. Lu, Q. D. You, Discovery and Development of Kelch-like ECH-Associated Protein 1: Nuclear Factor Erythroid 2-Related Factor 2 (KEAP1:NRF2) Protein-Protein Interaction Inhibitors: Achievements, Challenges and Future Directions, J. Med. Chem., 59 (2016) 10837-10858). The primers used for qRT-PCR were as follows: Nrf2 (forward primer: AACCACCCTGAAAGCACGC, reverse primer: […]); HO-1 (forward primer: […], reverse primer: […]); NQO-1 (forward primer: CGCAGACCTT-GTGATATTCCAG, reverse primer: […]); GCLM (forward primer: […], reverse primer: […]).
(§1) To determine the effect of pro2 on Nrf2-ARE-driven gene transcription, mRNA levels of Nrf2 and three downstream genes, HO-1, NQO1 and GCLM, were examined ((A) of FIG. 4 to (D) of FIG. 4). […] The protein levels of the above genes were determined by western blot.

[2] = Drug release rate by HPLC (H2O2 activation of prodrug); format: physicochemical
Protocol: The target compound was dissolved in DMSO to give a 10 mM stock solution, which was then stored at −20° C. The final concentration was brought to 50 μM by adding the target compound (10 mM) to phosphate buffered saline (PBS) (10 mM, pH 7.4), and H2O2 was added. The solution was well vortexed, and then incubated at 37° C. Samples were taken at appropriate time intervals and analyzed by HPLC directly after injection, and the peak areas were recorded to calculate the percentage of the compound. The procedure was repeated three times. The following Agilent 1260 HPLC and DAD detectors were used: Agilent C18 column (4.6×150 mm, 3.5 μm); mobile phase: 70% methanol; flow rate: 0.5 mL/min. A standard curve of the compound was plotted against concentration.
After treatment with 10 mM H2O2, the prodrug pro2 was activated with prolonged incubation time and the active parent compound 2 was completely released within 3 h (HPLC-determined conversion >98%, (B) of FIG. 1 and (C) of FIG. 1).

[3] = tested on: IL-1β and IL-6 mRNA in RAW264.7 cells; test: Real-time quantitative PCR of IL-1β and IL-6; format: cell-based, mouse; settings: 20 ng/mL LPS 8 h
RAW264.7 cells = test: IL-1β, IL-6, TNF-α and NO assays in cell culture supernatant; format: cell-based, mouse
Protocol: IL-1β (IL-1β (m) ELISA kit, EK0394, Boster), IL-18 (IL-18 (m) ELISA kit, EMC011, NeoBioscience), IL-6 (IL-6 (m) ELISA kit EK0411, Boster), TNF-α (TNF-α (m) ELISA kit, EK0527, Boster) and NO (nitrate/nitrite assay kit, S0023, Beyotime, China) were tested using commercially available kits according to the manufacturer's instructions.
Then, several inflammatory mediators closely related to ROS, including IL-1β, IL-6, TNF-α and NO, were further evaluated.

[4] = Stability in liver microsomes (rat); format: in vitro ADME
Protocol: (§2) (3) Stability in microsomes. Isolated liver microsomes (from CD-1 male rats and human males) were used to evaluate the stability of the compound in microsomes in vitro. Ketanserin was used as a reference compound. A liver microsome solution (20 mg/mL) was added to a microcentrifuge tube containing PBS at 37° C. and the mixture was shaken for 10 min prior to assay. Then a DMSO solution (0.5 mM) containing the test compound was added. At 0 min, pre-cooled acetonitrile was added followed by an NADPH stock solution (6 mM). The plates were pre-incubated at 37° C. for 5 min. The timer started upon the addition of the NADPH stock solution (6 mM) to the plates. At 5 min, 15 min, 30 min and 45 min, pre-cooled acetonitrile was added to the wells of the respective plates to stop the reactions. After the reaction was quenched, the plates were shaken on a shaker for 10 min and then centrifuged at 5000 rpm for 15 min. The supernatant from each well was transferred to a 96-well sample plate containing ultrapure water for LC-MS/MS analysis.

[5] = Stability in liver microsomes (human); format: in vitro ADME
Protocol: as §2

[6] = Parallel artificial membrane permeability assay (PAMPA); format: in vitro ADME
Protocol: Potential solubility data were obtained with a pSOL model 3 instrument (pION INC, Cambridge, Massachusetts, USA). Cell membrane permeability was determined on a PAMPA Explorer instrument (pION).
Subsequently, the permeability of cell membranes was measured by standard parallel artificial membrane permeability assay (PAMPA).

[7] = pKa and log D by Avdeef-Bucher potentiometric titration; format: physicochemical
Protocol: Through Avdeef-Bucher potentiometric titration, pKa and partition coefficients (log D, pH 7.4) were determined on a Gemini Profiler instrument (pION) according to the method of Avdeef and Tsinman. pH measurements were used to determine the intrinsic solubility.

[8] = tested on: Nrf2 and downstream antioxidant enzyme in RAW264.7 cells; test: Western blot of Nrf2 targeting proteins; format: cell-based, mouse; settings: LPS, same concentration
Protocol: Anti-Nrf2 (ab62352) and anti-IL-1β (ab45692) antibodies were purchased from Abcam Technology (England). Anti-HO-1 (SC-136960) and anti-NQO1 (SC-271116) antibodies were purchased from Santa Cruz Biotechnology (California, USA). Anti-β-Actin (60008-1-Ig) and anti-GCLM (14241-1-AP) antibodies were purchased from Proteintech Group (USA). Cell sampling and western blot were performed as previously reported (M.-C. Lu, J.-A. Ji, Y.-L. Jiang, Z.-Y. Chen, Z.-W. Yuan, Q.-D. You, Z.-Y. Jiang, An inhibitor of the Keap1-Nrf2 protein-protein interaction protects NCM460 colonic cells and alleviates experimental colitis, Sci. Rep., 6 (2016) 26585).
as §1

time to complete release of the active parent compound 2 ([2]; 10 mM H2O2): ≤ 3 h | HPLC-determined conversion ([2]; 10 mM H2O2, within 3 h): > 98% | release of the active parent compound 2 ([2]; H2O2 0.8 mM, 24 h incubation, HPLC): no less than 50% | EC50 (RAW264.7 cells; Mus musculus, LPS-stimulated RAW264.7 cells, read-out: EC50 for reduction of extracellular NO concentration): 120 nM | stability in co-incubation with rat liver microsomes [4]: very stable | stability in co-incubation with human liver microsomes [5]: very stable | Pe at pH 7.4 [6]: 6.35 10^−6 cm/s | Papp ([6]; pH 7.4, read-out: Pe at pH 7.4): 6.35 ×10⁻⁶ cm/s | pKa [7]: 4.53 | LogD at pH 7.4 ([7]; pH 7.4): 2.34
Structure (SMILES): COc1ccc(S(=O)(=O)Nc2ccc(N(CC(=O)N3CCSC3=O)S(=O)(=O)c3ccc(OC)cc3)c3ccccc23)cc1 [pro2]
transcription of Nrf2, HO-1, NQO1 and GCLM (mRNA) [1]: greatly enhanced the transcription | mRNA transcription of IL-1β and IL-6 [3]: significantly inhibit the induction by pro-inflammatory genes | production of IL-1β, IL-6 and TNF-α in supernatant (RAW264.7 cells; LPS-treated RAW264.7 cell culture): significant advantages in inhibiting production | protein levels of Nrf2 and downstream antioxidant enzyme [8]: significantly increased levels of Nrf2 and downstream antioxidant enzyme

— patent US12383535B2, “Hydrogen peroxide-responsive KEAP1-NRF2 ppi inhibitor prodrug, and preparation method therefor” (CHINA PHARMACEUTICAL UNIVERSITY, priority 2019, dated 2025)
